pIC50: −log10 of the molar value.
Experiments:
[1] = Displacement of [3H]Gabapentin from alpha2delta calcium channel in pig brain tissue homogenates after 45 mins by scintillation counting; format: tissue-based, Sus scrofa
[2] = Tmax in iv dosed rat; format: ADME, organism-based; settings: in vivo
Rattus norvegicus = experiment: Unbound clearance in iv dosed rat; format: ADME, organism-based; settings: in vivo
[3] = Half life in iv dosed rat; format: ADME, organism-based; settings: in vivo
[4] = Volume of distribution in iv dosed rat; format: ADME, organism-based; settings: in vivo

Structure (SMILES) | pIC50 [1] | also measured
C[C@@H](CNCC(=O)O)Oc1ccc(Br)cc1 | 6.36 | –
CC(CNCC(=O)O)Oc1ccc(Cl)cc1 (racemic) | 6.28 | –
O=C(O)CNCCSc1ccc2ccncc2c1 | 7.08 | –
CCC(CNCC(=O)O)Oc1ccc(Br)cc1 (racemic) | 6.67 | –
O=C(O)CNCCSc1ccccc1 | 5.27 | –
O=C(O)CNCCOc1ccc(Cl)cc1 | 5.18 | –
O=C(O)CNCCSc1ccc2ccccc2c1 | 7.66 | Tmax [2]: 15 min; CL free (Rattus norvegicus): 23 mL/min/kg; half-life [3]: 66 min; Vd [4]: 0.6 L/kg
C[C@H](CNCC(=O)O)Oc1ccc(Br)cc1 | 5.18 | –
CCC(CNCC(=O)O)Oc1cccc(Cl)c1 (racemic) | 7.40 | –

Further lines, with some results ahead:

pIC50 [1] | Structure (SMILES) | also measured
6.71 | O=C(O)CNCCSc1ccc(Cl)cc1 | –
7.23 | O=C(O)CNCCSc1ccc(Br)cc1 | –
6.37 | O=C(O)CNCCSc1cccc(Br)c1 | –
5.60 | O=C(O)CNCCSc1ccc(F)cc1 | –
6.17 | N#Cc1ccc(SCCNCC(=O)O)cc1 | –
6.05 | NCc1ccc(SCCNCC(=O)O)cc1 | –

— ChEMBL document CHEMBL1777680, “Part 1: N-alkylated glycines as potent α2δ ligands” (Bioorg Med Chem Lett, 2011)
